18 molecules from US20120225896A1, “NOVEL 2-PYRIDONE DERIVATIVE AND PHARMACEUTICAL PRODUCT CONTAINING SAME” (KOWA COMPANY, LTD., priority 2009, published 2012) can be followed below.

Read-outs that look alike come from different tables or passages of the source.

The target of one experiment is T1, human PPARγ2 (Homo sapiens, UniProt P37231).
T1 construct: the amino acids 182 to 505 of human PPARγ2; expressed in transfected cells; African green monkey kidney
Description: PPARγ activation activity, Gal4-PPARγ2 LBD chimera luciferase transfection assay in COST cells. Type of experiment: cell-based. The protocol:
PPARγ Activation Activity
The agonistic activity of the compounds of the invention on PPARγ was measured based on the transfection assay using COST cells (DS Pharma Biomedical Co., Ltd., Osaka, Japan), which are the cell line derived from the kidney of the African green monkey. COST cells were cultured under 5% CO2 concentration, and DMEM medium containing 10% fetal bovine serum, glutamic acid, and antibiotics was used as a medium.
As an expression vector, a chimera in which DNA binding domain of Ga14, which is a yeast transcription factor, and ligand binding domain of human PPARγ2 are fused, i.e., a fused product between the amino acids 1 to 147 of Gal4 transcription factor and the amino acids 182 to 505 of human PPARγ2, was used. Furthermore, as a reporter vector, a firefly luciferase containing five copies of Gal4 recognition sequence in the promoter region was used. Plasmid transfection to the cells was performed according to a method which uses jetPEI (trade name, manufactured by Funakoshi Co., Ltd., Tokyo, Japan). Furthermore, β-galactosidase expression vector was employed as an internal standard.
After the transfection of the cells, the medium was replaced with a DMEM medium (containing 1% serum) added with the test compound, and the cells were further cultured for 16 hours. After that, the luciferase activity and β-galactosidase activity in the cell lysis solution were measured.
For the present test, dimethyl sulfoxide (DMSO) was used for dissolution and dilution of the test compounds, and during the cell treatment, the DMSO concentration in DMEM medium (containing 1% serum) was adjusted to 0.1%. The 50% effective concentration of the test compound (EC50, 50% effect concentration) was calculated by using SAS Preclinical Package Ver 5.0 (trade name, manufactured by SAS institute Japan Co., Tokyo, Japan), which is a statistical analysis program.
As shown in the Table 2, it was confirmed that the compounds of the present invention have a potent PPARγ activation activity. Under the same condition, the PPARγ activation activity of telmisartan, i.e., EC50, was 1 to 5 μM.

The target in experiment [1] is T2, angiotensin II type 1 receptor (Oryctolagus cuniculus, UniProt P34976).
T2 construct: By using a specimen of isolated rabbit blood vessels; from tissue; host or cells: rabbit thoracic aorta ring (New Zealand White, male)
T2 sequence (P34976 1-359): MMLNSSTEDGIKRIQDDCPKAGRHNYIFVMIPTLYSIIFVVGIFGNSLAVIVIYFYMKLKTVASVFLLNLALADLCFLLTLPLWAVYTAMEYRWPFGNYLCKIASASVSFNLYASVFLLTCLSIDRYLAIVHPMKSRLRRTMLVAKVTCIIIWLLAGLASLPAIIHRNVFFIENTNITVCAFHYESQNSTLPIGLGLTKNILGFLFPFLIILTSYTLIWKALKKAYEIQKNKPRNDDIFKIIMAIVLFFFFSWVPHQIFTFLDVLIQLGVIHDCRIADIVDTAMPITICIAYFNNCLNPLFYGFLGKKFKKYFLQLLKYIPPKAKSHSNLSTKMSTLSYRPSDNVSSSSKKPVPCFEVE
Nature of the experiment: Angiotensin II antagonistic activity in isolated rabbit blood vessels (angiotensin II-induced contraction of thoracic aorta ring). The experiment is classed as cell-based. The note with it: angiotensin II (10 nM)-induced contraction, 37° C. An excerpt: Angiotensin II Antagonistic Activity in Isolated Rabbit Blood Vessels
By using a specimen of isolated rabbit blood vessels, antagonistic activity of the compounds of the invention against angiotensin II type 1 receptor was estimated from a dose-response curve of angiotensin II-induced blood vessel contraction. Specifically, the specimen of thoracic aorta ring of a rabbit (New Zealand White: male, 2.4 to 3.0 kg) was suspended in a magnus bath filled with Krebs-Henseleite buffer (composition: 118 mM NaCl, 4.7 mM KCl, 2.55 mM CaCl2, 1.18 mM MgSO4, 1.18 mM KH2PO4, 24.88 mM NaHCO3, and 11.1 mM D-glucose), and angiotensin II (10 nM)-induced contraction was obtained in the presence of the compounds of each example (1 nmol/L to 10 μmol/L). During the measurement, the inside temperature of the magnus bath was maintained at 37° C. and the bath was continuously ventilated with a sufficient amount of mixed gas (95% O2 and 5% CO2). The angiotensin II-induced contraction was converted into a relative value (%) that is based on the angiotensin II (10 nM)-induced contraction in the absence of the compounds of each example. From the concentration-response curve obtained therefrom, 50% inhibition concentration (IC50 value) was calculated by using SAS Preclinical Package Ver5.0 (trade name, manufactured by SAS institute Japan Co., Tokyo, Japan), which is a statistical analysis program.
As shown in the Table 1, it was confirmed that the compounds of the invention have a potent angiotensin II antagonistic activity.

[2] abbreviates: COST cells transfected with Gal4 (aa 1-147)/human PPARγ2 (aa 182-505) chimera, luciferase reporter, 16 hours, read-out: EC50.

T1 sequence (P37231 182-505): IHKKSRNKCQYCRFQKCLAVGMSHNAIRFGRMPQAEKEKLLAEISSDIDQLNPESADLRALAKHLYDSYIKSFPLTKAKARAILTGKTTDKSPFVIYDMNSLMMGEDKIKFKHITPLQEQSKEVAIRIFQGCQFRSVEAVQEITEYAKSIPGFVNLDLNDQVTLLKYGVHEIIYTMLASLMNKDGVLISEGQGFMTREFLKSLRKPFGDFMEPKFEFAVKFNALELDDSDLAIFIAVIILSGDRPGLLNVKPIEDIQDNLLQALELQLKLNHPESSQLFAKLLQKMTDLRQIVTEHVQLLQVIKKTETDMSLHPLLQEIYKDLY
T1 sequence (P04386 1-147 partner limits assumed): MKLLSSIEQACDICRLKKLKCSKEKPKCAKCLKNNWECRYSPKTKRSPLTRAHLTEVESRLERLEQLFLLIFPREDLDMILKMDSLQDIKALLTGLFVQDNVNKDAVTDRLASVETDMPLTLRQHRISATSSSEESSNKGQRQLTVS

What is called EC50 is the concentration that produces a half-maximal response. As for `CCCc1cc(C)n(Cc2ccccc2)c(=O)c1Cc1ccc(-c2ccccc2-c2noc(=O)[nH]2)cc1` [Example 4, 3-{4′-[(1-benzyl-6-methyl-2-oxo-4-propyl-1,2-dihydropyridin-3-yl)methyl]biphenyl-2-yl}-1,2,4-oxadiazol-5(4H)-one], at human PPARγ2 (setting [2]), the EC50 was determined as 200 nM.
With `CCCCc1cc(C)n(Cc2ccccc2)c(=O)c1Cc1ccc(-c2ccccc2-c2nnn[nH]2)cc1` [Example 1, 3-{[2′-(1H-tetrazol-5-yl)biphenyl-4-yl]methyl}-1-benzyl-4-butyl-6-methylpyridin-2(1H)-one], the EC50 at human PPARγ2 (setting [2]) is 400 nM.
As usually defined, the IC50 is the concentration at which inhibition is half-maximal. Take `CCCCc1cc(C)n(CCc2ccccc2)c(=O)c1Cc1ccc(-c2ccccc2-c2noc(=O)[nH]2)cc1` [Example 8, 3-{4′-[(4-butyl-6-methyl-2-oxo-1-phenethyl-1,2-dihydropyridin-3-yl)methyl]biphenyl-2-yl}-1,2,4-oxadiazol-5(4H)-one]: the concentration for a half-maximal effect (EC50) at human PPARγ2 (setting [2]) is 200 nM. Besides, the midpoint of inhibition in experiment [1], the IC50, lay at 390 nM.
Take `CCCCc1cc(C)n(-c2ncc(OC)cn2)c(=O)c1Cc1ccc(-c2ccccc2-c2noc(=O)[nH]2)cc1` [Example 14, 3-{4′-{[4-butyl-1-(5-methoxypyrimidin-2-yl)-6-methyl-2-oxo-1,2-dihydropyridin-3-yl]methyl}biphenyl-2-yl}-1,2,4-oxadiazol-5(4H)-one]: the EC50 at human PPARγ2 (setting [2]) was 1270 nM. This molecule also had an IC50 in experiment [1] of 540 nM.
`CCCc1cc(C)n(Cc2ccccc2)c(=O)c1Cc1ccc(-c2ccccc2-c2nnn[nH]2)cc1` [Example 3, 3-{[2′-(1H-tetrazol-5-yl)biphenyl-4-yl]methyl}-1-benzyl-6-m ethyl-4-propylpyridin-2(1H)-one]: the EC50 on human PPARγ2 (setting [2]) was determined as 320 nM.
For `CCCCc1cc(C)n(Cc2ccccc2)c(=O)c1Cc1ccc(-c2ccccc2-c2noc(=O)[nH]2)cc1` [Example 2, 3-{4′-[(1-benzyl-4-butyl-6-methyl-2-oxo-1,2-dihydropyridin-3-yl)methyl]biphenyl-2-yl}-1,2,4-oxadiazol-5(4H)-one], the EC50 on human PPARγ2 (setting [2]) worked out at 260 nM.
`CCCCc1cc(C)n(CCOC)c(=O)c1Cc1ccc(-c2ccccc2-c2nnn[nH]2)cc1` [Example 9, 3-{[2′-(1H-tetrazol-5-yl)biphenyl-4-yl]methyl}-4-butyl-1-(2-methoxyethyl)-6-methylpyridin-2(1H)-one]: the EC50 at human PPARγ2 (setting [2]) came to 560 nM. The same molecule gave a half-inhibitory concentration (IC50) in experiment [1] of 160 nM.
Taken in the same sequence, the figures for `CCCCc1cc(C)n(-c2ncc(OCC)cn2)c(=O)c1Cc1ccc(-c2ccccc2-c2noc(=O)[nH]2)cc1` [Example 12, 3-{4′-{[4-butyl-1-(5-ethoxypyrimidin-2-yl)-6-methyl-2-oxo-1,2-dihydropyridin-3-yl]methyl}biphenyl-2-yl}-1,2,4-oxadiazol-5(4H)-one] were 590 nM and 460 nM.
As to `CCCCCc1cc(C)n(Cc2ccccc2)c(=O)c1Cc1ccc(-c2ccccc2-c2nnn[nH]2)cc1` [Example 5, 3-{[2′-(1H-tetrazol-5-yl)biphenyl-4-yl]methyl}-1-benzyl-6-m ethyl-4-pentylpyridin-2(1H)-one], the EC50 on human PPARγ2 (setting [2]) amounted to 500 nM.
Take `CCCCCc1cc(C)n(Cc2ccccc2)c(=O)c1Cc1ccc(-c2ccccc2-c2noc(=O)[nH]2)cc1` [Example 6, 3-{4′-[(1-benzyl-6-methyl-2-oxo-4-pentyl-1,2-dihydropyridin-3-yl)methyl]biphenyl-2-yl}-1,2,4-oxadiazol-5(4H)-one]: the EC50 at human PPARγ2 (setting [2]) is 260 nM.
Turning to `CCCOc1cc(C)n(Cc2ccccc2)c(=O)c1Cc1ccc(-c2ccccc2-c2noc(=O)[nH]2)cc1` [Example 18, 3-{4′-[(1-benzyl-6-methyl-2-oxo-4-propoxy-1,2-dihydropyridin-3-yl)methyl]biphenyl-2-yl}-1,2,4-oxadiazol-5(4H)-one], on human PPARγ2 (setting [2]), the EC50 amounted to 140 nM.
With `CCCCc1cc(C)n(CCOC)c(=O)c1Cc1ccc(-c2ccccc2-c2noc(=O)[nH]2)cc1` [Example 10, 3-{4′-{[4-butyl-1-(2-methoxyethyl)-6-methyl-2-oxo-1,2-dihydropyridin-3-yl)methyl]biphenyl-2-yl}-1,2,4-oxadiazol-5(4H)-one], the concentration giving a half-maximal response (EC50) on human PPARγ2 (setting [2]) came to 450 nM. In experiment [1], this molecule registered an IC50 of 190 nM.
As for `CCCOc1cc(C)n(Cc2ccccc2)c(=O)c1Cc1ccc(-c2ccccc2-c2nnn[nH]2)cc1` [Example 17, 3-{[2′-(1H-tetrazol-5-yl)biphenyl-4-yl]methyl}-1-benzyl-6-m ethyl-4-propoxypyridin-2(1H)-one], the EC50 on human PPARγ2 (setting [2]) came out at 580 nM.
Turning to `CCCCc1cc(C)n(-c2ncc(OCC)cn2)c(=O)c1Cc1ccc(-c2ccccc2-c2nnn[nH]2)cc1` [Example 11, 3-{[2′-(1H-tetrazol-5-yl)biphenyl-4-yl]methyl}-4-butyl-1-(5-ethoxypyrimidin-2-yl)-6-methylpyridin-2(1H)-one], the EC50 on human PPARγ2 (setting [2]) is 2220 nM. The IC50 in experiment [1] came to 330 nM.
Turning to `CCCCc1cc(C)n(-c2ccccn2)c(=O)c1Cc1ccc(-c2ccccc2-c2noc(=O)[nH]2)cc1` [Example 16, 3-{4′-{[4-butyl-6-methyl-2-oxo-1-(pyridin-2-yl)-1,2-dihydropyridin-3-yl]methyl}biphenyl-2-yl}-1,2,4-oxadiazol-5(4H)-one], the EC50 at human PPARγ2 (setting [2]) amounted to 1400 nM.
Consider `CCCc1nc2c(C)cc(-c3nc4ccccc4n3C)cc2n1Cc1ccc(-c2ccccc2C(=O)O)cc1` [telmisartan, reference compound], for which the EC50 on human PPARγ2 was in the range of 1000 to 5000 nM.
Turning to `CCCCc1cc(C)n(-c2ccccn2)c(=O)c1Cc1ccc(-c2ccccc2-c2nnn[nH]2)cc1` [Example 15, 3-{[2′-(1H-tetrazol-5-yl)biphenyl-4-yl]methyl}-4-butyl-6-methyl-1-(pyridin-2-yl)pyridin-2(1H)-one], the EC50 at human PPARγ2 (setting [2]) was determined as 1660 nM. This molecule also returned an IC50 in experiment [1] of 460 nM.
With `CCCCc1cc(C)n(CCc2ccccc2)c(=O)c1Cc1ccc(-c2ccccc2-c2nnn[nH]2)cc1` [Example 7, 3-{[2′-(1H-tetrazol-5-yl)biphenyl-4-yl]methyl}-4-butyl-6-methyl-1-phenethylpyridin-2(1H)-one], the EC50 on human PPARγ2 (setting [2]) is 270 nM. The molecule also showed an IC50 in experiment [1] of 580 nM.
